According to patent US20020013314A1, “3,4-dihydro-2H-benzo[1,4]oxazine inhibitors of factor Xa” (priority 2000, published 2002):

Experiments:
prothrombinase complex = prothrombinase complex (Homo sapiens, UniProt P00742); test: prothrombinase inhibition assay (plasma free system, Chromozym TH); type: biochemical
Procedure: The prothrombinase inhibition assay is performed in a plasma free system with modifications to the method described by Sinha, U. et al., Thromb. […] Specifically, the activity of the prothrombinase complex is determined by measuring the time course of thrombin generation using the p-nitroanilide substrate Chromozym TH. […] Aliquots from the complex-inhibitor mixture are added to prothrombin (1 nM) and Chromozym TH (0.1 mM). […] Eight different concentrations of inhibitor are assayed in duplicate. A standard curve of thrombin generation by an equivalent amount of untreated complex is used for determination of percent inhibition.

factor Xa = factor Xa (Homo sapiens, UniProt P00742); test: factor Xa amidolytic assay (chromogenic substrate S-2765)
Procedure: (§1) In the assays for thrombin, prothrombinase and factor Xa, a synthetic chromogenic substrate is added to a solution containing test compound and the enzyme of interest and the residual catalytic activity of that enzyme is determined spectrophotometrically. The IC50 of a compound is determined from the substrate turnover. […] The factor Xa and thrombin assays are performed at room temperature, in 0.02 M Tris·HCl buffer, pH 7.5, containing 0.15 M NaCl.

thrombin = thrombin (Homo sapiens, UniProt P00734); test: thrombin amidolytic assay (Chromozym TH)
Procedure: as §1

[1] = Table 3, probe of regiochemistry

Chain of factor Xa (P00742 41-179 limits assumed): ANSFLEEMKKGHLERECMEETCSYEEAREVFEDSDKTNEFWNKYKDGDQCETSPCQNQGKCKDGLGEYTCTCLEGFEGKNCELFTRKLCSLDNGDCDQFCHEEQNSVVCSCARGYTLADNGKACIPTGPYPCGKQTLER
Chain of factor Xa (P00742 235-488 limits assumed): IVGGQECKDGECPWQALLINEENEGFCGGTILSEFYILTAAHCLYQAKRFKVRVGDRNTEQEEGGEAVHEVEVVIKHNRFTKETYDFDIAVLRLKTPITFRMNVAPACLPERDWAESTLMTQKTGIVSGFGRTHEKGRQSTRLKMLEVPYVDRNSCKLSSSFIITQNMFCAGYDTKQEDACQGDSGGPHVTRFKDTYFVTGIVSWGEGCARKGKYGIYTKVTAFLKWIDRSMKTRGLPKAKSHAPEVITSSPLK
Chain of prothrombinase complex (P00742 41-179 limits assumed): as the sequence (P00742 41-179 limits assumed) above
Chain of prothrombinase complex (P00742 235-488 limits assumed): as the sequence (P00742 235-488 limits assumed) above
Chain of prothrombinase complex (P12259 29-737 partner limits assumed): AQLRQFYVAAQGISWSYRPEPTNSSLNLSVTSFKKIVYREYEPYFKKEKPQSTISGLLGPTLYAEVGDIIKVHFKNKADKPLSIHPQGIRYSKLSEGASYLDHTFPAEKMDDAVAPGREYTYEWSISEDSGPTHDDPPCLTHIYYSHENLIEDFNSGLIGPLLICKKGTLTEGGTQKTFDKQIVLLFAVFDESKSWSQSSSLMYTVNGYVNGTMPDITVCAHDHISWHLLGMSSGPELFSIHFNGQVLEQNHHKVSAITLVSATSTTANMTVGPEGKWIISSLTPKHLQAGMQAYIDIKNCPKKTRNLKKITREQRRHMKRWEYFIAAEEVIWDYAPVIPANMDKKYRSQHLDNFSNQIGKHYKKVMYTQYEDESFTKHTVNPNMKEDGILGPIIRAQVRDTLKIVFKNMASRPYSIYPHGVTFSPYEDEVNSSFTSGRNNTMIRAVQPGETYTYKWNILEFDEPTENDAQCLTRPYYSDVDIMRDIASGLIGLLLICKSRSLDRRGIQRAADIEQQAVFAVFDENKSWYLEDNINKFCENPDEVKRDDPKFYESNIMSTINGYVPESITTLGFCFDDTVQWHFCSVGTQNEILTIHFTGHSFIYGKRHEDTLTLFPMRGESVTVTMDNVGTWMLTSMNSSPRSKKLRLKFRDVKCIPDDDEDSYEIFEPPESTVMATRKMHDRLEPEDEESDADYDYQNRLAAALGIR
Chain of prothrombinase complex (P12259 1574-2224 partner limits assumed): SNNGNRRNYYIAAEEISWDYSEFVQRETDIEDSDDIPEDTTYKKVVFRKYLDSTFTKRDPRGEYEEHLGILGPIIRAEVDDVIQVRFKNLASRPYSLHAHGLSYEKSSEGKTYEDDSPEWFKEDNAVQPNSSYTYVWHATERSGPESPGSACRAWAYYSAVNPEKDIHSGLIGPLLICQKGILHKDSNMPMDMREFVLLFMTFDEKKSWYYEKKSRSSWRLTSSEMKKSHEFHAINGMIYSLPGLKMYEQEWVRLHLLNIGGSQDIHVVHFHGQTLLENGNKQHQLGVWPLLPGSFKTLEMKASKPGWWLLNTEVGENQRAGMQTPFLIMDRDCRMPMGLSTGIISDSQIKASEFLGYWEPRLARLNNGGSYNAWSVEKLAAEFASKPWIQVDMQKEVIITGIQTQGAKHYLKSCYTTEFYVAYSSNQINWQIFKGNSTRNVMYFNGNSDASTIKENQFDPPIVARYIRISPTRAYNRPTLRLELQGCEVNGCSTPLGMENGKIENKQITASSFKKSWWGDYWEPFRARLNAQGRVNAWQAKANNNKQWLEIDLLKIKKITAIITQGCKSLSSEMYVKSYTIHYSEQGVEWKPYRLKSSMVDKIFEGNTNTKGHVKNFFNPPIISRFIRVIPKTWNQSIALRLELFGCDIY

CC(=N)N1CCC(Oc2ccc3c(c2)OCC(=O)N3Cc2cccc(-c3cccc(C(=N)N)c3)c2)CC1 [Cmpd 23]
IC50 (prothrombinase complex; [1]): 214 nM | IC50 (factor Xa): 0.0376 µM | IC50 (thrombin): 11 µM

CC(=N)N1CCC(Oc2ccc3c(c2)OCC(=O)N3Cc2ccc3ccc(C(=N)N)cc3c2)CC1 [Cmpd 24]
IC50 (thrombin): 334 µM

CC(=N)N1CCC(Oc2ccc3c(c2)N(Cc2cccc(-c4cccc(C(=N)N)c4)c2)C(=O)CO3)CC1 [Cmpd 25]
IC50 (prothrombinase complex; [1]): 934 nM | IC50 (factor Xa): 0.344 µM | IC50 (thrombin): 5.37 µM

CC(=N)N1CCC(Oc2ccc3c(c2)N(Cc2ccc4ccc(C(=N)N)cc4c2)C(=O)CO3)CC1 [Cmpd 26]
IC50 (prothrombinase complex; [1]): 352 nM | IC50 (factor Xa): 0.191 µM | IC50 (thrombin): 81 µM

CC(=N)N1CCC(Oc2ccc3c(c2)OCC(=O)N3Cc2cc(-c3cccc(C(=N)N)c3)no2)CC1 [Cmpd 27]
IC50 (prothrombinase complex; Table 4): 159 nM | IC50 (factor Xa): 0.0524 µM | IC50 (thrombin): 250 µM

CC(=N)N1CCC(Oc2ccc3c(c2)OCC(=O)N3Cc2cc3ccc(C(=N)N)cc3n2C)CC1 [Cmpd 28]
IC50 (prothrombinase complex; Table 4): 6.6 nM | IC50 (factor Xa): 0.002 µM

N=C(N)c1ccc(C(=O)Nc2ccc3c(c2)OCC(=O)N3Cc2ccc3ccc(C(=N)N)cc3c2)cc1 [Cmpd 31]
IC50 (prothrombinase complex; Table 5): 67500 nM | IC50 (factor Xa): 10.1 µM | IC50 (thrombin): 204 µM

N=C(N)c1ccc2ccc(CN3C(=O)COc4cc(NS(=O)(=O)c5ccccc5)ccc43)cc2c1 [Cmpd 32]
IC50 (prothrombinase complex; Table 5): 55200 nM | IC50 (factor Xa): 21.9 µM | IC50 (thrombin): 34.5 µM

COc1ccc(S(=O)(=O)Nc2ccc3c(c2)OCC(=O)N3Cc2ccc3ccc(C(=N)N)cc3c2)cc1 [Cmpd 33]
IC50 (prothrombinase complex; Table 5): 81000 nM | IC50 (factor Xa): 38.2 µM | IC50 (thrombin): 34.9 µM

N=C(N)c1ccc2ccc(CN3C(=O)COc4cc(NS(=O)(=O)c5cccc6ncccc56)ccc43)cc2c1 [Cmpd 34]
IC50 (prothrombinase complex; Table 5): 364000 nM | IC50 (factor Xa): 19.5 µM | IC50 (thrombin): 109 µM

N=C(N)c1ccc2ccc(CN3C(=O)COc4cc(NS(=O)(=O)c5ccc6cc(Br)ccc6c5)ccc43)cc2c1 [Cmpd 35]
IC50 (prothrombinase complex; Table 5): 98000 nM | IC50 (factor Xa): 268 µM | IC50 (thrombin): 83.7 µM

N=C(N)c1ccc2ccc(CN3C(=O)COc4ccc(-c5ccccc5S(N)(=O)=O)cc43)cc2c1 [Cmpd 36]
IC50 (prothrombinase complex; Table 6, monoamidine): 2000 nM | IC50 (factor Xa): 0.068 µM | IC50 (thrombin): 26.7 µM

N=C(N)c1cccc(-c2cccc(CN3C(=O)COc4ccc(-c5ccccc5S(N)(=O)=O)cc43)c2)c1 [Cmpd 37]
IC50 (prothrombinase complex; Table 6, monoamidine): 3000 nM | IC50 (factor Xa): 0.89 µM | IC50 (thrombin): 8.7 µM

Cc1cc(CN2C(=O)COc3cc(-c4ccccc4S(N)(=O)=O)ccc32)n(-c2cccc(C(=N)N)c2)n1 [Cmpd 38]
IC50 (prothrombinase complex; Table 6, monoamidine): > 11000 nM | IC50 (factor Xa): > 11 µM | IC50 (thrombin): > 11 µM
